# Measurements published in patent US10316049B2, “Tank-binding kinase inhibitor compounds” (Gilead Sciences, Inc., priority 2015, dated 2019).
# What was measured:
# TBK1 = target: T1, TBK1 (Homo sapiens, UniProt Q9UHD2); assay: TR-FRET enzymatic activity assay, TBK1; format: biochemical; note: full length recombinant TBK1 at 2.5 nM
# T1 construct: TBK1 and IKKε were expressed and purified as full length recombinant proteins; made in house
# T1 sequence (Q9UHD2 1-729): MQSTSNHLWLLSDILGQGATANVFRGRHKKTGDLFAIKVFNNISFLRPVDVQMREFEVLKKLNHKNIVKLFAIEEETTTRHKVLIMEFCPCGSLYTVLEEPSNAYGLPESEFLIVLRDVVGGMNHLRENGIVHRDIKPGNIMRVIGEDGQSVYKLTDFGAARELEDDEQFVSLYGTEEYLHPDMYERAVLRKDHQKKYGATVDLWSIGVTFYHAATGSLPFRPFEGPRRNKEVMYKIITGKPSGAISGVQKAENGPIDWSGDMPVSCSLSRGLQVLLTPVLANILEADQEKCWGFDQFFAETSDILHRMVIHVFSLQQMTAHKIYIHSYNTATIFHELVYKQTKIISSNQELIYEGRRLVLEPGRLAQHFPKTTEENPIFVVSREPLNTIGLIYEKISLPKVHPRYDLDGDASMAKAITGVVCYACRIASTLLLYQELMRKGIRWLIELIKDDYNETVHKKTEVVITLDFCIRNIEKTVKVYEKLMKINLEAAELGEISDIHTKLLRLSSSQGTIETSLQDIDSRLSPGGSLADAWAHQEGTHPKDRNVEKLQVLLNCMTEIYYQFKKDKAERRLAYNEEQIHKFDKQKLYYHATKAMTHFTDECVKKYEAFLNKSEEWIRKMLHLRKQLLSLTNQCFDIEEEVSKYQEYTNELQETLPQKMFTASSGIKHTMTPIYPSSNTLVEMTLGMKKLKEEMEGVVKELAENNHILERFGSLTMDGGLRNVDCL
# Procedure: (§1) Biological Assay for TBK1 and IKKε:
# (§2) Enzymatic activity of IKKε and TBK1 was measured using a homogeneous time resolved fluorescence resonance energy transfer (TR-FRET) assay that monitors enzyme dependent phosphorylation of a biotinylated serine/threonine peptide substrate. An increase in the amount of phosphorylated peptide results in an increase in TR-FRET signal. TBK1 and IKKε were expressed and purified as full length recombinant proteins. Detection reagents for the assay were purchased from Cisbio. […] After an assay reaction time of 240 minutes at 25° C., reactions were terminated with EDTA.
# (§3) Amount of phosphorylated peptide was determined by the addition of 125 nM streptavidin XL665 and europium cryptate labeled anti-phospho monoclonal antibody and the resulting TR-FRET signal was recorded on an Envision plate reader (Ex: 340 nm; Em: 615/665 nm; 100 μs delay and 200 μs read window). Data was normalized based on a positive (1 μM Staurosporine) and negative (DMSO) controls and IC50 values calculated from the fit of the dose-response curves to a four-parameter equation. All IC50 values represent geometric mean values of a minimum of four determinations. These assays generally produced results within 3-fold of the reported mean.
# IKKε = target: T2, IKKε (Homo sapiens, UniProt Q14164); assay: TR-FRET enzymatic activity assay, IKKε; format: biochemical; settings: read-out: IKKϵ IC50; note: full length recombinant IKKε at 0.3 nM
# T2 construct: TBK1 and IKKε were expressed and purified as full length recombinant proteins; made in house
# T2 sequence (Q14164 1-716): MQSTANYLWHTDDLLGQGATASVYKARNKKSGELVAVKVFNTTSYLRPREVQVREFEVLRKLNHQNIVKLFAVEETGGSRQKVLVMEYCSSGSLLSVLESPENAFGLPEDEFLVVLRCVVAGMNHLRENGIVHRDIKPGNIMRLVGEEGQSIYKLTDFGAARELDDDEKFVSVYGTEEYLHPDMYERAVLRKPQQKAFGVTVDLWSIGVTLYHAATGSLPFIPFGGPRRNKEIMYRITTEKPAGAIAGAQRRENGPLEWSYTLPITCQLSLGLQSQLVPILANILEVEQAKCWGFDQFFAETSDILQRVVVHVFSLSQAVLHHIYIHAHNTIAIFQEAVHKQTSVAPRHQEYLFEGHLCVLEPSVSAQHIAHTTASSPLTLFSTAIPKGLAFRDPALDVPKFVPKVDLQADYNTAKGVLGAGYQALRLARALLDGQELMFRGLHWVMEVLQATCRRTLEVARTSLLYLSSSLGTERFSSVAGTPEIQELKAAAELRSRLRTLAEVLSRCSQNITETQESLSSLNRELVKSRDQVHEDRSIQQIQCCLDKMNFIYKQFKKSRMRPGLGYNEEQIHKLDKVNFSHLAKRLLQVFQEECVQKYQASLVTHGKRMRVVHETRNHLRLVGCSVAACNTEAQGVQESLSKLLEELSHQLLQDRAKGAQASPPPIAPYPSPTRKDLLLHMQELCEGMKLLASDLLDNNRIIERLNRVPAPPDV
# Procedure: as §1
# as §2, with “An increase in the amount of phosphorylated peptide results in an increase in TR-FRET signal.” left out
# as §3, with “determinations.” for “determinations. These assays generally produced results within 3-fold of the reported mean.”
SMILES,IC50 (TBK1) [µM],IC50 (IKKε) [µM]
"CCOC(=O)[C@@H]1C[C@H]1C(=O)Nc1cc(-c2ccc(OC3CCOCC3)c(C#N)c2)ncn1 (relative stereo) [Example 35, (trans)-ethyl 2-((6-(3-cyano-4-((tetrahydro-2H-pyran-4-yl)oxy)phenyl)pyrimidin-4-yl)carbamoyl)cyclopropanecarboxylate]",0.485,> 1
CON(C)C(=O)[C@@H]1C[C@H]1C(=O)Nc1cc(-c2ccc(OC3CCOCC3)c(C#N)c2)ccn1 (relative stereo) [Example 38],0.305,0.253
"N#Cc1cc(-c2ccnc(NC(=O)[C@@H]3C[C@H]3c3cnco3)c2)ccc1OC1CCOCC1 (relative stereo) [Example 43, (1,2-trans)-N-(4-(3-cyano-4-((tetrahydro-2H-pyran-4-yl)oxy)phenyl)pyridin-2-yl)-2-(oxazol-5-yl)cyclopropane-1-carboxamide]",0.0613,0.146
"N#Cc1cc(-c2ccnc(NC(=O)[C@@H]3C[C@H]3C(=O)NCCO)c2)ccc1OC1CCOCC1 (relative stereo) [Example 46, (1,2-trans)-N1-(4-(3-cyano-4-((tetrahydro-2H-pyran-4-yl)oxy)phenyl)pyridin-2-yl)-N2-(2-hydroxyethyl)cyclopropane-1,2-dicarboxamide]",0.302,0.429
"Cc1cc([C@@H]2C[C@H]2C(=O)Nc2cc(-c3ccc(OC4CCOCC4)c(C#N)c3)ccn2)on1 (relative stereo) [Example 47, (1,2-trans)-N-(4-(3-cyano-4-((tetrahydro-2H-pyran-4-yl)oxy)phenyl)pyridin-2-yl)-2-(3-methylisoxazol-5-yl)cyclopropane-1-carboxamide]",0.0294,0.269
"COC(=O)[C@@H]1C[C@H]1C(=O)Nc1cc(-c2ccc(O[C@H]3CCN(C(=O)CO)C[C@H]3F)c(C#N)c2)ccn1 (relative stereo) [Example 83, Methyl (1,2-trans)-2-((4-(3-cyano-4-(((3R,4S)-3-fluoro-1-(2-hydroxyacetyl)piperidin-4-yl)oxy)phenyl)pyridin-2-yl)carbamoyl)cyclopropane-1-carboxylate]",0.0479,0.0533
"Cn1cc([C@@H]2C[C@H]2C(=O)Nc2cc(-c3ccc(O[C@H]4CCN(C(=O)CO)CC4(F)F)c(C#N)c3)ncn2)cn1 [Example 128, (1,2-Trans)-N-(6-(3-cyano-4-(((S)-3,3-difluoro-1-(2-hydroxyacetyl)piperidin-4-yl)oxy)phenyl)pyrimidin-4-yl)-2-(1-methyl-1H-pyrazol-4-yl)cyclopropane-1-carboxamide]",0.0072,
"Cn1cc([C@@H]2C[C@H]2C(=O)Nc2cc(-c3ccc(O[C@H]4CCN(C(=O)CO)CC4(F)F)c(C#N)c3)ncn2)cn1 [Example 137, (1R,2R)—N-(6-(3-cyano-4-(((S)-3,3-difluoro-1-(2-hydroxyacetyl)piperidin-4-yl)oxy)phenyl)pyrimidin-4-yl)-2-(1-methyl-1H-pyrazol-4-yl)cyclopropane-1-carboxamide]",0.0214,
"Cn1cc([C@H]2C[C@@H]2C(=O)Nc2cc(-c3ccc(O[C@H]4CCN(C(=O)CO)CC4(F)F)c(C#N)c3)ncn2)cn1 [Example 138, (1S,2S)—N-(6-(3-cyano-4-(((S)-3,3-difluoro-1-(2-hydroxyacetyl)piperidin-4-yl)oxy)phenyl)pyrimidin-4-yl)-2-(1-methyl-1H-pyrazol-4-yl)cyclopropane-1-carboxamide]",0.0059,

# Now from value to compound:
IC50 (TBK1) [µM],IC50 (IKKε) [µM],SMILES
0.0615,0.065,"N#Cc1cc(-c2ccnc(NC(=O)[C@@H]3C[C@H]3C=O)c2)ccc1OC1CCOCC1 (relative stereo) [Example 40, (1,2-trans)-N-(4-(3-cyano-4-((tetrahydro-2H-pyran-4-yl)oxy)phenyl)pyridin-2-yl)-2-formylcyclopropane-1-carboxamide]"
0.267,0.0803,"CN(C)C[C@@H]1C[C@H]1C(=O)Nc1cc(-c2ccc(OC3CCOCC3)c(C#N)c2)ccn1 (relative stereo) [Example 41, (1,2-trans)-N-(4-(3-cyano-4-((tetrahydro-2H-pyran-4-yl)oxy)phenyl)pyridin-2-yl)-2-((dimethylamino)methyl)cyclopropane-1-carboxamide]"
0.0621,0.0482,"N#Cc1cc(-c2ccnc(NC(=O)[C@@H]3C[C@H]3CO)c2)ccc1OC1CCOCC1 (relative stereo) [Example 42, (1,2-trans)-N-(4-(3-cyano-4-((tetrahydro-2H-pyran-4-yl)oxy)phenyl)pyridin-2-yl)-2-(hydroxymethyl)cyclopropane-1-carboxamide]"
0.0333,0.192,"N#Cc1cc(-c2ccnc(NC(=O)[C@@H]3C[C@H]3C3OCCO3)c2)ccc1OC1CCOCC1 (relative stereo) [Example 44, (1,2-trans)-N-(4-(3-cyano-4-((tetrahydro-2H-pyran-4-yl)oxy)phenyl)pyridin-2-yl)-2-(1,3-dioxolan-2-yl)cyclopropane-1-carboxamide]"
0.444,0.427,"N#Cc1cc(-c2ccnc(NC(=O)[C@@H]3C[C@H]3C(=O)N3CC(O)C3)c2)ccc1OC1CCOCC1 (relative stereo) [Example 45, (1,2-trans)-N-(4-(3-cyano-4-((tetrahydro-2H-pyran-4-yl)oxy)phenyl)pyridin-2-yl)-2-(3-hydroxyazetidine-1-carbonyl)cyclopropane-1-carboxamide]"
0.23,0.535,"CCOC(=O)[C@@H]1C[C@H]1C(=O)Nc1cc(-c2ccc(OC3CCOCC3)c(C#N)c2)ccn1 (relative stereo) [Example 50, Ethyl trans-2-((4-(3-cyano-4-((tetrahydro-2H-pyran-4-yl)oxy)phenyl)pyridin-2-yl)carbamoyl)cyclopropane-1-carboxylate]"
0.529,0.314,"N#Cc1cc(-c2ccnc(NC(=O)[C@H]3C[C@@H]3[N+](=O)[O-])c2)ccc1OC1CCOCC1 (relative stereo) [Example 86, (1,2 trans)-N-(4-(3-cyano-4-((tetrahydro-2H-pyran-4-yl)oxy)phenyl)pyridin-2-yl)-2-nitrocyclopropane-1-carboxamide]"
0.0588,0.314,"N#Cc1cc(-c2ccnc(NC(=O)[C@H]3C[C@@H]3C3CC3)c2)ccc1OC1CCOCC1 (relative stereo) [Example 88, (1,2-trans)-N-(4-(3-cyano-4-((tetrahydro-2H-pyran-4-yl)oxy)phenyl)pyridin-2-yl)-[1,1′-bi(cyclopropane)]-2-carboxamide]"
